In ChEMBL document CHEMBL4610007, “Design and synthesis of boron-containing diphenylpyrimidines as potent BTK and JAK3 dual inhibitors” (Bioorg Med Chem, 2020):

Tests used:
[1] = target: Tyrosine-protein kinase BTK (Homo sapiens, UniProt Q06187)
Description: Inhibition of recombinant human His-tagged full length BTK expressed in baculovirus expression system using Ulight-Poly GT as substrate incubated for 2 hrs by Lanthascreen TR-FRET assay

[2] = target: Non-receptor tyrosine-protein kinase TYK2 (Homo sapiens, UniProt P29597); test: Inhibition of recombinant human N-terminal GST-tagged TYK2 (871 to 1187 residues) expressed in baculovirus expression system using Ulight-Poly GT as substrate incubated for 2 hrs by Lanthascreen TR-FRET assay
Chain of Non-receptor tyrosine-protein kinase TYK2 (P29597 whole entry, the tested form may be a part): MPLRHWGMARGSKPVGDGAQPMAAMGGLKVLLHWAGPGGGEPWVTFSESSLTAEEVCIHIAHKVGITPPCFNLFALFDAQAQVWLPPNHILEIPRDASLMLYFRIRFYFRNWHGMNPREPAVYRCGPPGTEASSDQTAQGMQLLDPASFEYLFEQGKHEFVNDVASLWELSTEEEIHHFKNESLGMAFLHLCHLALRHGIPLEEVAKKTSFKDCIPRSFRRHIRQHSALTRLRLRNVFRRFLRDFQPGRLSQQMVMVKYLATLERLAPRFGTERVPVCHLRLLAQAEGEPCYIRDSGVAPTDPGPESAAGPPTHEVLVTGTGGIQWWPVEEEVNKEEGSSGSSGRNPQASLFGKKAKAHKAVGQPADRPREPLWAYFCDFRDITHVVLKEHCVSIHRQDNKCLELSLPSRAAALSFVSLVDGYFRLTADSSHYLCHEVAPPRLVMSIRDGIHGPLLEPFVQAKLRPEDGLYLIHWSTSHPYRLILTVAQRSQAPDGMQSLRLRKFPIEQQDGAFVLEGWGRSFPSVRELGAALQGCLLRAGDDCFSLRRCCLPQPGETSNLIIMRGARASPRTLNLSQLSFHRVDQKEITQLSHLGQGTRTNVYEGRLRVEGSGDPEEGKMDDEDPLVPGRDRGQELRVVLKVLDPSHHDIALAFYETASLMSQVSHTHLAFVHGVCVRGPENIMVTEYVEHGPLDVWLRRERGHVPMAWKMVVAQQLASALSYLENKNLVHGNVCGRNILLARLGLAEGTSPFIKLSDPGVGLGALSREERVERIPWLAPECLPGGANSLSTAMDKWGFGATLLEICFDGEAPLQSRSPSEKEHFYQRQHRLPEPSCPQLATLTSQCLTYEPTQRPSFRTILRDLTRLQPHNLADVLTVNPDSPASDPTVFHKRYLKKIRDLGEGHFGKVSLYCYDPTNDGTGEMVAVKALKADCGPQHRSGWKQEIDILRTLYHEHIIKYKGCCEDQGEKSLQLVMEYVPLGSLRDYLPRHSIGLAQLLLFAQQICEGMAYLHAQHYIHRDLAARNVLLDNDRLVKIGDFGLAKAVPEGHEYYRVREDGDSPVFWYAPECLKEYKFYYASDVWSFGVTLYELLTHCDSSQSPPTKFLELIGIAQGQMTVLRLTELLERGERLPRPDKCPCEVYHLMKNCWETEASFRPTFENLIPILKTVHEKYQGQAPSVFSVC

[3] = target: Tyrosine-protein kinase JAK1 (Homo sapiens, UniProt P23458); test: Inhibition of recombinant human N-terminal GST-tagged JAK1 (850 to 1154 residues) expressed in baculovirus expression system using Ulight-Poly GT as substrate incubated for 2 hrs by Lanthascreen TR-FRET assay
Chain of Tyrosine-protein kinase JAK1 (P23458 whole entry, the tested form may be a part): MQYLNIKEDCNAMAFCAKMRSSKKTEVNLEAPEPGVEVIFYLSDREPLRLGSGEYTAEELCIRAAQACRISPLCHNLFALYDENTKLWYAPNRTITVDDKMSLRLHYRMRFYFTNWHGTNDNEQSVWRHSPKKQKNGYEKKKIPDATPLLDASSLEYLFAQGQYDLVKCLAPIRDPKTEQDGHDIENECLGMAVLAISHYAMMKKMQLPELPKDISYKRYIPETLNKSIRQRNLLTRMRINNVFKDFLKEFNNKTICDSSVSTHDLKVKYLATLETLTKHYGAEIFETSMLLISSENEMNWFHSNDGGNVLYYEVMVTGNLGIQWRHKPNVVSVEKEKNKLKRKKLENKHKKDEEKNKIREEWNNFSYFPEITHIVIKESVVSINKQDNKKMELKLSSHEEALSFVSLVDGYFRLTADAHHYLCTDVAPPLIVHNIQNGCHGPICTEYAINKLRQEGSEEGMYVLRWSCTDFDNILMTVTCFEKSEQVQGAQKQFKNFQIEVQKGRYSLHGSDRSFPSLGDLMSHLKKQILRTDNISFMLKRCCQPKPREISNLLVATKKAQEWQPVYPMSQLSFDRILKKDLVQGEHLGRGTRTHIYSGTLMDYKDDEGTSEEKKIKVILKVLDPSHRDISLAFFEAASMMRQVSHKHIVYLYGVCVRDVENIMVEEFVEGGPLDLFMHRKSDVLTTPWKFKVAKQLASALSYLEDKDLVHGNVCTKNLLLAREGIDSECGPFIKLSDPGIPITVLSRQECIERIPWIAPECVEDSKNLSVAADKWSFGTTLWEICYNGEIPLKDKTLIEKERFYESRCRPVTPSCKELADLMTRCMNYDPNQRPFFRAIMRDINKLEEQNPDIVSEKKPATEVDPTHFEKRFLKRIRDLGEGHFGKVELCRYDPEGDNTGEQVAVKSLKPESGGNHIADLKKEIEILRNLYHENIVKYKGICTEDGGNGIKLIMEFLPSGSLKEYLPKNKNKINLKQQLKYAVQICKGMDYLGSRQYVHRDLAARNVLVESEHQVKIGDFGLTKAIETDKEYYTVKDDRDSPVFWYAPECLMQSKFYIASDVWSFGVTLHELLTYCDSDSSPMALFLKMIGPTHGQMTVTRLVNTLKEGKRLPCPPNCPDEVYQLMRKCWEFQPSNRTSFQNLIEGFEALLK

Homo sapiens [4] = organism: Homo sapiens; test: Selectivity index, ratio of IC50 for recombinant human N-terminal His-tagged JAK2 (826 to 1132 residues) expressed in baculovirus expression system to IC50 for recombinant human N-terminal His-tagged JAK3 (795 to 1124 residues) expressed in baculovirus expression system
[5] = target: Tyrosine-protein kinase JAK2 (Homo sapiens, UniProt O60674)
Chain of Tyrosine-protein kinase JAK2 (O60674 whole entry, the tested form may be a part): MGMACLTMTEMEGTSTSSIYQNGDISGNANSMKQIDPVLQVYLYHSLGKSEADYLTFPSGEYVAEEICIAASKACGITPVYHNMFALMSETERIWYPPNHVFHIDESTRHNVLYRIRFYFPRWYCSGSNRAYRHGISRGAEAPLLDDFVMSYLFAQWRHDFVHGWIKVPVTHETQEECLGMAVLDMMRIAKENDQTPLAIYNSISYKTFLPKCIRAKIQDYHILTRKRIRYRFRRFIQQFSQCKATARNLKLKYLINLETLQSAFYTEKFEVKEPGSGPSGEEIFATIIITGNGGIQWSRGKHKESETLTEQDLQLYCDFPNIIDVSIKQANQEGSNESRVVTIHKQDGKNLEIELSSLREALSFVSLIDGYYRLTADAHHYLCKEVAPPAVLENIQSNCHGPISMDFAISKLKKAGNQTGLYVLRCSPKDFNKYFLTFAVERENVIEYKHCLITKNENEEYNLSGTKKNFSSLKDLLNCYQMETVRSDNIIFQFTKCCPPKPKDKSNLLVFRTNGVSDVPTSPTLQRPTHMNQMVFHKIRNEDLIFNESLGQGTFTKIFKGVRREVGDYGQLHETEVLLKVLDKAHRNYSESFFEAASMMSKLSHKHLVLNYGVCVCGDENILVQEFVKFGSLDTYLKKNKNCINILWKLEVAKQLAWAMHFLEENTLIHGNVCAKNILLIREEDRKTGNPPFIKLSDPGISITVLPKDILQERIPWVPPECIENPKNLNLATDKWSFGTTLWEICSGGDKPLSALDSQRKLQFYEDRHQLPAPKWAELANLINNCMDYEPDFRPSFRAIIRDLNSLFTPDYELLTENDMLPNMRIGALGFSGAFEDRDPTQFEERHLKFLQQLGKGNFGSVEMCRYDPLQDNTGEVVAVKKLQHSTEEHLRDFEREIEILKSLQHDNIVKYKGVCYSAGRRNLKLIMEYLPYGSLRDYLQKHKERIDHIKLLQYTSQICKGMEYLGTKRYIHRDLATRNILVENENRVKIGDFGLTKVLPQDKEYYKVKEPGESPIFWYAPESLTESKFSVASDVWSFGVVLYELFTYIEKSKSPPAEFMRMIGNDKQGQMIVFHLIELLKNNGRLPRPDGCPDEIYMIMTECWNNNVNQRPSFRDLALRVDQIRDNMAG
Description: Inhibition of recombinant human N-terminal His-tagged JAK2 (826 to 1132 residues) expressed in baculovirus expression system using Ulight-Poly GT as substrate incubated for 2 hrs by Lanthascreen TR-FRET assay

Homo sapiens [6] = organism: Homo sapiens; test: Selectivity index, ratio of IC50 for recombinant human N-terminal GST-tagged JAK1 (850 to 1154 residues) expressed in baculovirus expression system to IC50 for recombinant human N-terminal His-tagged JAK3 (795 to 1124 residues) expressed in baculovirus expression system
[7] = target: T1, Tyrosine-protein kinase JAK3 (Homo sapiens, UniProt P52333)
T1 sequence (P52333 whole entry): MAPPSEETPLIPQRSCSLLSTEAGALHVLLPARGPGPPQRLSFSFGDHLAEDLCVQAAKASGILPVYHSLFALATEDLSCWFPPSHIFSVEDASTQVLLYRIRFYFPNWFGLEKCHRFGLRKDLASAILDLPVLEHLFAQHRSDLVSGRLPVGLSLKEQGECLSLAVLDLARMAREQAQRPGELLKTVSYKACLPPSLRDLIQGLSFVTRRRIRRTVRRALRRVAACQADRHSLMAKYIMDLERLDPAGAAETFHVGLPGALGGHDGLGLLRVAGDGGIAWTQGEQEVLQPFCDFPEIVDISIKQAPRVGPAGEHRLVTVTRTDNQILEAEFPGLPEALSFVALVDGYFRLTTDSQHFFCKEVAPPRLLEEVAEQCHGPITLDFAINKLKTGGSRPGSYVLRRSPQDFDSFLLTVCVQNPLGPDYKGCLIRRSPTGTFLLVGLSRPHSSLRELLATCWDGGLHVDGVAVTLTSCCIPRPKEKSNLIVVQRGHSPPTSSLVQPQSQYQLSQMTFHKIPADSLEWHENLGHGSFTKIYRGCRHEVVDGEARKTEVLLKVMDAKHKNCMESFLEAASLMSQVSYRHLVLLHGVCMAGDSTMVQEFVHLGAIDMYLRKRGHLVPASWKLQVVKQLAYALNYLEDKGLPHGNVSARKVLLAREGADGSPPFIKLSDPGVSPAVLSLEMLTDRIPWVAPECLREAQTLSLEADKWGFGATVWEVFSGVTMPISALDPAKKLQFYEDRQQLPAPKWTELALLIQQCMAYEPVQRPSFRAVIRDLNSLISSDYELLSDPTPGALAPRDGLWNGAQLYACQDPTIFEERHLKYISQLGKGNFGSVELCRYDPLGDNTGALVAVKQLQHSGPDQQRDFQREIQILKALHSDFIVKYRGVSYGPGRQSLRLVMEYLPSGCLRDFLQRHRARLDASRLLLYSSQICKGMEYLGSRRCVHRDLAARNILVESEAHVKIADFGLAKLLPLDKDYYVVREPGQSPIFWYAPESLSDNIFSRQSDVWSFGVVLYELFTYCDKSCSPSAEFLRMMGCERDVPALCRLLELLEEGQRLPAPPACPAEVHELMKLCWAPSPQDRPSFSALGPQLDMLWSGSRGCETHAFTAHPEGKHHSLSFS
Description: Inhibition of recombinant human N-terminal His-tagged JAK3 (795 to 1124 residues) expressed in baculovirus expression system using Ulight-Poly GT as substrate incubated for 2 hrs by Lanthascreen TR-FRET assay

Homo sapiens [8] = organism: Homo sapiens; test: Selectivity index, ratio of IC50 for recombinant human N-terminal GST-tagged TYK2 (871 to 1187 residues) expressed in baculovirus expression system to IC50 for recombinant human N-terminal His-tagged JAK3 (795 to 1124 residues) expressed in baculovirus expression system
Raji = test: cells; conditions: Homo sapiens, 72 h
Description: Antiproliferative activity against human Raji cells assessed as reduction in cell viability incubated for 72 hrs by CCK-8 assay

JeKo-1 = test: cells; conditions: Homo sapiens, JeKo-1, 72 h
Description: Antiproliferative activity against human JeKo1 cells assessed as reduction in cell viability incubated for 72 hrs by CCK-8 assay

in vitro [9] = conditions: human, liver microsomes
Description: Metabolic stability in human liver microsomes assessed as compound remaining at 0.2 uM incubated for 60 mins by UPLC-MS/MS analysis

HEL = test: cells; conditions: Homo sapiens, 72 h
Description: Antiproliferative activity against human HEL cells assessed as reduction in cell viability incubated for 72 hrs by CCK-8 assay

OCI-Ly10 = test: cells; conditions: Homo sapiens, OCI-Ly10, 72 h
Description: Antiproliferative activity against human OCI-LY10 cells assessed as reduction in cell viability incubated for 72 hrs by CCK-8 assay

Ramos = test: cells; conditions: Homo sapiens, 72 h
Description: Antiproliferative activity against human Ramos cells assessed as reduction in cell viability incubated for 72 hrs by CCK-8 assay

in vitro [10] = conditions: human, liver microsomes; remark: listed apart in the source
in vitro [11] = conditions: human, liver microsomes; remark: listed apart in the source

Chain of Tyrosine-protein kinase BTK (Q06187 whole entry, the tested form may be a part): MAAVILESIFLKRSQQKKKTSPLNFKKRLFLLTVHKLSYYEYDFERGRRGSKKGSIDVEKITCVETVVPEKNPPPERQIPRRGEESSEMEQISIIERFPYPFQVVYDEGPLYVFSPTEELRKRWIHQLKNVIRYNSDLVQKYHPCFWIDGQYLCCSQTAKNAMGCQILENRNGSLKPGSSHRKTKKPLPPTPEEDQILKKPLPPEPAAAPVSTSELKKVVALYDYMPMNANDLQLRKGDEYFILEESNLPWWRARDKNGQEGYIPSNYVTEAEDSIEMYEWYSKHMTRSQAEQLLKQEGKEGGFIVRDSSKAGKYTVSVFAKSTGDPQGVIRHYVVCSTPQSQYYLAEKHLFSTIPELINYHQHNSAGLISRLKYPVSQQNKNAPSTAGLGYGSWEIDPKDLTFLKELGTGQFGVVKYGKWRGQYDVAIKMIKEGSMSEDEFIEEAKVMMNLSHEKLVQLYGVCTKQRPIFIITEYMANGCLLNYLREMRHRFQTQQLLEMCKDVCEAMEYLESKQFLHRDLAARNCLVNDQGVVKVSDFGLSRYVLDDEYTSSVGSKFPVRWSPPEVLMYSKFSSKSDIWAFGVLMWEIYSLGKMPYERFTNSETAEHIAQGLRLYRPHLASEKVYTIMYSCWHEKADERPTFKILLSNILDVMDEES

C=CC(=O)Nc1cccc(Nc2nc(Nc3ccc4c(c3)COB4O)ncc2OC)c1
IC50 [1]: 8.2 nM

C=CC(=O)Nc1cccc(Oc2nc(Nc3ccc4c(c3)COB4O)ncc2OC)c1
IC50 [1]: 1.7 nM | IC50 [2]: > 1000 nM | IC50 [3]: > 1000 nM | Ratio IC50 (Homo sapiens [4]): > 1000 | IC50 [5]: > 1000 nM | Ratio IC50 (Homo sapiens [6]): > 1000 | IC50 [7]: 0.8 nM | Ratio IC50 (Homo sapiens [8]): > 1000

C=CC(=O)Nc1cccc(Nc2nc(Nc3ccc4c(c3)COB4O)ncc2C(F)(F)F)c1
IC50 (Raji): 1700 nM | IC50 (JeKo-1): 500 nM | remaining at 1 h, 0.2 µM (in vitro [9]): 47.2% | IC50 [1]: 0.6 nM | IC50 (HEL): 1100 nM | IC50 (OCI-Ly10): 1000 to 10000 nM | IC50 [2]: > 1000 nM | IC50 (Ramos): 500 nM | IC50 [3]: > 1000 nM | Ratio IC50 (Homo sapiens [4]): > 1000 | IC50 [5]: 658 nM | microsomal CLint at 1 h, 0.2 µM (in vitro [10]): 23.6 µL/min/mg | half-life at 1 h, 0.2 µM (in vitro [11]): 58.8 min | Ratio IC50 (Homo sapiens [6]): > 1000 | IC50 [7]: 0.4 nM | Ratio IC50 (Homo sapiens [8]): > 1000

C=CC(=O)Nc1cccc(Nc2nc(Nc3ccc4c(c3)B(O)OCC4)ncc2C(F)(F)F)c1
IC50 [1]: 1.9 nM | IC50 [2]: > 1000 nM | IC50 [3]: > 1000 nM | Ratio IC50 (Homo sapiens [4]): > 1000 | IC50 [5]: > 1000 nM | Ratio IC50 (Homo sapiens [6]): > 1000 | IC50 [7]: 1.5 nM | Ratio IC50 (Homo sapiens [8]): > 1000

C=CC(=O)Nc1cccc(Nc2nc(Nc3ccc4c(c3)B(O)OC4)ncc2Cl)c1
IC50 [1]: 4.7 nM

C=CC(=O)Nc1cccc(Nc2nc(Nc3ccc4c(c3)B(O)OC4)ncc2C)c1
IC50 [1]: 6.1 nM

C=CC(=O)Nc1cccc(Nc2nc(Nc3cccc4c3COB4O)ncc2C(F)(F)F)c1
IC50 [1]: 63 nM

C=CC(=O)Nc1cccc(Oc2nc(Nc3ccc4c(c3)COB4O)ncc2C(F)(F)F)c1
IC50 [1]: 6.5 nM

C=CC(=O)Nc1cccc(Nc2nc(Nc3cccc(B(O)O)c3)ncc2C(F)(F)F)c1
IC50 [1]: 6.5 nM

CN(C)C/C=C/C(=O)Nc1cccc(Nc2nc(Nc3ccc4c(c3)COB4O)ncc2C(F)(F)F)c1
IC50 [1]: 11.8 nM

C=CC(=O)Nc1cccc(Nc2nc(Nc3cccc4c3B(O)OC4)ncc2C(F)(F)F)c1
IC50 [1]: 268 nM

C=CC(=O)Nc1cccc(Nc2nc(Nc3ccc(OCCOC)cc3)ncc2F)c1 [SPEBRUTINIB]
IC50 (Raji): 17600 nM | IC50 (JeKo-1): 1300 nM | remaining at 1 h, 0.2 µM (in vitro [9]): 38.8% | IC50 (HEL): 5300 nM | IC50 (OCI-Ly10): > 10000 nM | IC50 (Ramos): 3900 nM | IC50 [3]: > 1000 nM | IC50 [5]: 534 nM | microsomal CLint at 1 h, 0.2 µM (in vitro [10]): 31.9 µL/min/mg | half-life at 1 h, 0.2 µM (in vitro [11]): 43.4 min | IC50 [7]: 8.5 nM

C=CC(=O)Nc1cccc(Nc2nc(Oc3ccc4c(c3)B(O)OC4)ncc2C(F)(F)F)c1
IC50 [1]: > 1000 nM

C=CC(=O)Nc1cccc(Nc2nc(NNc3ccccc3)ncc2C(F)(F)F)c1
IC50 [1]: > 1000 nM

C=CC(=O)N1CCCC(Nc2nc(Nc3ccc4c(c3)COB4O)ncc2C(F)(F)F)C1 (centres undefined)
IC50 [1]: 36.8 nM

C=CC(=O)Nc1ccc(OC)c(Nc2nc(Nc3ccc4c(c3)B(O)OC4)ncc2C(F)(F)F)c1
IC50 [1]: > 1000 nM

C=CC(=O)Nc1cccc(Nc2nc(Nc3ccc4c(c3)B(O)OC4(C)C)ncc2C(F)(F)F)c1
IC50 [1]: 2 nM | IC50 [2]: > 1000 nM | IC50 [3]: > 1000 nM | Ratio IC50 (Homo sapiens [4]): > 1000 | IC50 [5]: > 1000 nM | Ratio IC50 (Homo sapiens [6]): > 1000 | IC50 [7]: 1 nM | Ratio IC50 (Homo sapiens [8]): > 1000

C=CC(=O)Nc1cccc(Nc2nc(Nc3ccc4c(c3)B(O)OC4)ncc2C(F)(F)F)c1
IC50 (Raji): 6800 nM | IC50 (JeKo-1): 1200 nM | remaining at 1 h, 0.2 µM (in vitro [9]): 45% | IC50 [1]: 2.9 nM | IC50 (HEL): 5100 nM | IC50 (OCI-Ly10): > 10000 nM | IC50 [2]: > 1000 nM | IC50 (Ramos): 2300 nM | IC50 [3]: > 1000 nM | Ratio IC50 (Homo sapiens [4]): > 1000 | IC50 [5]: 972 nM | microsomal CLint at 1 h, 0.2 µM (in vitro [10]): 24.8 µL/min/mg | half-life at 1 h, 0.2 µM (in vitro [11]): 55.9 min | Ratio IC50 (Homo sapiens [6]): > 1000 | IC50 [7]: 0.5 nM | Ratio IC50 (Homo sapiens [8]): > 1000

C=CC(=O)Nc1cccc(Nc2nc(Nc3ccc(B(O)O)cc3)ncc2C(F)(F)F)c1
IC50 [1]: 1.5 nM | IC50 [2]: > 1000 nM | IC50 [3]: > 1000 nM | Ratio IC50 (Homo sapiens [4]): > 1000 | IC50 [5]: 891 nM | Ratio IC50 (Homo sapiens [6]): > 1000 | IC50 [7]: 0.3 nM | Ratio IC50 (Homo sapiens [8]): > 1000

C=CC(=O)Nc1cccc(Nc2nc(Nc3ccc4c(c3)B(O)OC4)ncc2F)c1
IC50 [1]: 8.5 nM

C=CC(=O)Nc1cccc(Nc2nc(Nc3cc4c(cc3F)COB4O)ncc2C(F)(F)F)c1
IC50 [1]: 156 nM
